From US20240101557A1, “FUSED TRICYCLIC COMPOUNDS AS INHIBITORS OF KRAS G12V MUTANTS” (INCYTE CORPORATION, priority 2022, published 2024)

Experiments:
KRAS G12D = KRAS G12D (Homo sapiens, UniProt P01116, G12D); test: GDP-GTP exchange assay (bodipy-GDP for GppNHp, with SOS1), KRAS G12D; format: biochemical; conditions: bodipy-loaded KRAS G12D 2.5 nM, 4 h pre-incubation, 2 h after GppNHp/SOS1; read-out: G12D_exchange
Experimental: (§1) The inhibitor potency of the exemplified compounds was determined in a fluorescence based guanine nucleotide exchange assay, which measures the exchange of bodipy-GDP (fluorescently labeled GDP) for GppNHp (Non-hydrolyzable GTP analog) to generate the active state of KRAS in the presence of SOS1 (guanine nucleotide exchange factor). Inhibitors were serially diluted in DMSO and a volume of 0.1 μL was transferred to the wells of a black low volume 384-well plate. 5 μL/well volume of bodipy-loaded KRAS G12D diluted to 2.5 nM in assay buffer (25 mM Hepes pH 7.5, 50 mM NaCl, 10 mM MgCl2 and 0.01% Brij-35) was added to the plate and pre-incubated with inhibitor for 4 h at ambient temperature. Appropriate controls (enzyme with no inhibitor or with a G12D inhibitor) were included on the plate. The exchange was initiated by the addition of a 5 μL/well volume containing 1 mM GppNHp and 300 nM SOS1 in assay buffer. The 10 μL/well reaction concentration of the bodipy-loaded KRAS G12D, GppNHp, and SOS1 were 2.5 nM, 500 uM, and 150 nM, respectively. The reaction plates were incubated at ambient temperature for 2 h, a time estimated for complete GDP-GTP exchange in the absence of inhibitor. For the KRAS G12V mutant, similar guanine nucleotide exchange assays were used with 2.5 nM as final concentration for the bodipy loaded KRAS proteins and 3 h incubation after adding GppNHp-SOS1 mixture. A cyclic peptide described to selectively bind G12D mutant (Sakamoto et al., BBRC 484.3 (2017), 605-611) or internal compounds with confirmed binding were used as positive controls in the assay plates. Fluorescence intensities were measured on a PheraStar plate reader instrument (BMG Labtech) with excitation at 485 nm and emission at 520 nm.
(§2) Either GraphPad prism or Genedata Screener SmartFit was used to analyze the data. The IC50 values were derived by fitting the data to a four parameter logistic equation producing a sigmoidal dose-response curve with a variable Hill coefficient.
(§3) The symbol “†” indicates IC50≤100 nM, “††” indicates IC50>100 nM but ≤1 μM; and “†††” indicates IC50 is >1 μM but ≤5 μM, “††††” indicates IC50 is >5 μM but ≤10 μM. “NA” indicates IC50 not available.

KRAS G12V mutant = KRAS G12V mutant (Homo sapiens, UniProt P01116, G12V); test: GDP-GTP exchange assay (bodipy-GDP for GppNHp, with SOS1), KRAS G12V; format: biochemical; conditions: bodipy-loaded KRAS G12V 2.5 nM, 3 h incubation after GppNHp-SOS1; read-out: G12V_ exchange
Experimental: as §1, §2, §3

KRAS G12V = test: G12V_cell (cellular assay on KRAS G12V cells, method not named in Table 1); format: cell-based; conditions: cell line and readout not stated
Experimental: MIA PaCa-2 (KRAS G12C; ATCC® CRL-1420), NCI-H358 (KRAS G12C; ATCC® CRL-5807), A427 (KRAS G12D; ATCC® HTB53), HPAFII (KRAS G12D; ATCC® CRL-1997), YAPC (KRAS G12V; DSMZ ACC382), SW480 (KRAS G12V; ATCC® CRL-228) and NCI-H838 (KRAS WT; ATCC® CRL-5844) cells are cultured in RPMI 1640 media supplemented with 10% FBS (Gibco/Life Technologies). Eight hundred cells per well in RPMI 1640 media supplemented with 2% FBS are seeded into white, clear bottomed 384-well Costar tissue culture plates containing 50 nL dots of test compounds (final concentration is a 1:500 dilution, with a final concentration in 0.2% DMSO). Plates are incubated for 3 days at […], 5% CO2. At the end of the assay, 25 ul/well of CellTiter-Glo reagent (Promega) is added. Luminescence is read after 15 min. with a PHERAstar (BMG). Data are analyzed in Genedata Screener using SmartFit for IC50 values.
MIA PaCa-2 (KRAS G12C; ATCC® CRL-1420), NCI-H358 (KRAS G12C; ATCC® CRL-5807), A427 (KRAS G12D; ATCC® HTB53), HPAFII (KRAS G12D; ATCC® CRL-1997), YAPC (KRAS G12V; DSMZ ACC382), SW480 (KRAS G12V; ATCC® CRL-228) and NCI-H838 (KRAS WT; ATCC® CRL-5844) cells are purchased from ATCC and maintained in RPMI 1640 media supplemented with 10% FBS (Gibco/Life Technologies). The cells are plated at 5000 cells per well (8 uL) into Greiner 384-well low volume, flat-bottom, and tissue culture treated white plates and incubated overnight at […], 5% CO2. The next morning, test compound stock solutions are diluted in media at 3× the final concentration and 4 uL are added to the cells, with a final concentration of 0.1% of DMSO. The cells are incubated with the test compounds for 4 h (G12C and G12V) or 2 hrs (G12D) at 37° C., 5% CO2. Four uL of 4× lysis buffer with blocking reagent (Cisbio) are added to each well and plates are rotated gently (300 rpm) for 30 min. at r.t. Four uL per well of Cisbio anti Phospho-ERK ½ d2 is mixed with anti Phospho-ERK ½ Cryptate (1:1), and added to each well, incubated overnight in the dark at r.t. Plates are read on the Pherastar plate reader at 665 nm and 620 nm wavelengths. Data are analyzed in Genedata Screener using SmartFit for IC50 values.

Measured: IC50

Chain of KRAS G12V mutant (P01116 1-188 isoform P01116-2 G12V): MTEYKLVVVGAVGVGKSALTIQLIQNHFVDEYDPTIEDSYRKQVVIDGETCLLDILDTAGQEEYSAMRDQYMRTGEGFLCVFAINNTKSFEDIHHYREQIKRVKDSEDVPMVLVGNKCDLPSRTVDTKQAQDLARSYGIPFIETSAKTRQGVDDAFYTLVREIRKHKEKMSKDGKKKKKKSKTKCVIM
Chain of KRAS G12D (P01116 1-188 isoform P01116-2 G12D): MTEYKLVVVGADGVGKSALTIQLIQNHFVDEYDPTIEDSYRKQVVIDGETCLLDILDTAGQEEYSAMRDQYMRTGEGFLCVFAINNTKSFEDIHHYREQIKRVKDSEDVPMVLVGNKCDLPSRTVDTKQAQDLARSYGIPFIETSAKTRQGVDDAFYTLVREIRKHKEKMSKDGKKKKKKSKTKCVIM

C[C@H](Oc1nc2c(F)c(-c3cccc(Cl)c3Cl)c(CCC#N)cc2c2c1cc([C@H]1C[C@H](F)CN1C(=O)C1CC1)n2[C@H]1[C@H]2CN[C@@H]1C2)[C@@H]1CCCN1C [Example 10, 3-(1-((1R,4R,5S)-2-Azabicyclo[2.1.1]hexan-5-yl)-2-((2R,4S)-1-(cyclopropanecarbonyl)-4-fluoropyrrolidin-2-yl)-7-(2,3-dichlorophenyl)-6-fluoro-4-((S)-1-((S)-1-methylpyrrolidin-2-yl)ethoxy)-1H-pyrrolo[3,2-c]quinolin-8-yl)propanenitrile]
≤ 100 nM: all assays above
